According to paper PMC9182012, “Aza-Oxa-Triazole Based Macrocycles with Tunable Properties: Design, Synthesis, and Bioactivity” (Molecules, 2022):

How the values were obtained:
[1] = target: bovine serum albumin (BSA) (Bos taurus, UniProt P02769); assay: Protein interaction by fluorescence quenching, Stern–Volmer binding constant; details: for Extent of binding with BSA, in words: fluorescence quenching, 10 µM BSA, pH 7.4, 25 °C; for Binding Constant, BSA: slope of Stern–Volmer plot (Io/I vs macrocycle concentration), 10 µM BSA in phosphate buffer pH 7.4, 2–100 µM macrocycle from 2 mM DMSO stock, 25 °C, excitation 280 nm, 3 min equilibration
Sequence of bovine serum albumin (BSA) (P02769 25-607): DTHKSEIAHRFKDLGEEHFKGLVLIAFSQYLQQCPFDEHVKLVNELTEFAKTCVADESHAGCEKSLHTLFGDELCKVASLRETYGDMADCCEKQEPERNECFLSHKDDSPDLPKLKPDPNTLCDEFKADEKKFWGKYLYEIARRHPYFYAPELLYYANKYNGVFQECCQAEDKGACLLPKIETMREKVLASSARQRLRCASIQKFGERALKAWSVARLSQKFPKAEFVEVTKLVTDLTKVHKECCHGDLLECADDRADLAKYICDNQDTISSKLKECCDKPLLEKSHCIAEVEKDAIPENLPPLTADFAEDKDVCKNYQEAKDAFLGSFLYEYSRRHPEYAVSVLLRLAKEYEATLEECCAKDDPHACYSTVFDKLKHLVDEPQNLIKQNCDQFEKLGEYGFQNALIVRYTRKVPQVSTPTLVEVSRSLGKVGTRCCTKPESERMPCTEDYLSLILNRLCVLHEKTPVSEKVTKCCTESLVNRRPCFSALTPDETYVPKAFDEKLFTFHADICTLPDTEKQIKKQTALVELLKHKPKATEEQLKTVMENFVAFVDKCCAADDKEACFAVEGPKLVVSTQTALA
Experimental: (§1) All the fluorescence spectra were recorded on a Perkin Elmer (Waltham, MA, USA) FL 6500 at 25 °C. The excitation wavelength of 280 nm and a slit width of 5 nm were used for excitation and emission. Next, 6.6 mg of BSA/HSA was dissolved in 10 mL of pH 7.4 phosphate buffer to make 10 μM BSA/HSA. The stock solutions of macrocycles were of 2 mM concentration dissolved in DMSO. The titrations were carried out in varied concentrations of macrocycles from 2 μM to 100 μM. Three minutes were given as the equilibration time after the addition of the solution. The Stern–Volmer plot was used to calculate the binding constant (slope) by plotting Io/I vs. the macrocycle concentration.
(§2) Figure 4 Fluorescence quenching of protein by MC7 at excitation wavelength 280 nm, (a) BSA and (b) HSA. To 10 µM protein solution in phosphate buffer (pH 7.4), 2–100 µM macrocycle solution was added at 25 °C. Inset: Stern–Volmer Plot; Io and I are the fluorescence intensity at 0 µM and the given concentration of the macrocycle, and the slope is considered as the binding constant. […]
(§3) 8.2 Fluorescence spectroscopy for protein interaction studies
(§4) 8.2.1 Experimental Procedure
(§5) 10 μM BSA was prepared by dissolving 6.6 mg of BSA in 10 mL of phosphate buffer of pH
(§6) 7.4. The macrocycles were dissolved in DMSO to make the stock solution of 2 mM concentration. 2 mL of the BSA control solution was taken in the fluorescence cuvette to take the emission at zero concentration of the compound. The titration was carried out by varying the concentration of macrocycle from 2 μM to 100 μM. An equilibration time of 3 minutes is given for each measurement after the addition of the solution. Binding constant were estimated from the Stern-Volmer plot by plotting I o/I vs concentration of the macrocycle. The slope of the graph was attributed as the binding constant.

[2] = target: human serum albumin (HSA) (Homo sapiens, UniProt P02768); assay: as above; details: for Extent of interaction with HSA, in words: fluorescence quenching, 10 µM HSA, pH 7.4, 25 °C; for Binding Constant, HSA: slope of Stern–Volmer plot (Io/I vs macrocycle concentration), 10 µM HSA in phosphate buffer pH 7.4, 2–100 µM macrocycle from 2 mM DMSO stock, 25 °C, excitation 280 nm, 3 min equilibration
Sequence of human serum albumin (HSA) (P02768 25-609): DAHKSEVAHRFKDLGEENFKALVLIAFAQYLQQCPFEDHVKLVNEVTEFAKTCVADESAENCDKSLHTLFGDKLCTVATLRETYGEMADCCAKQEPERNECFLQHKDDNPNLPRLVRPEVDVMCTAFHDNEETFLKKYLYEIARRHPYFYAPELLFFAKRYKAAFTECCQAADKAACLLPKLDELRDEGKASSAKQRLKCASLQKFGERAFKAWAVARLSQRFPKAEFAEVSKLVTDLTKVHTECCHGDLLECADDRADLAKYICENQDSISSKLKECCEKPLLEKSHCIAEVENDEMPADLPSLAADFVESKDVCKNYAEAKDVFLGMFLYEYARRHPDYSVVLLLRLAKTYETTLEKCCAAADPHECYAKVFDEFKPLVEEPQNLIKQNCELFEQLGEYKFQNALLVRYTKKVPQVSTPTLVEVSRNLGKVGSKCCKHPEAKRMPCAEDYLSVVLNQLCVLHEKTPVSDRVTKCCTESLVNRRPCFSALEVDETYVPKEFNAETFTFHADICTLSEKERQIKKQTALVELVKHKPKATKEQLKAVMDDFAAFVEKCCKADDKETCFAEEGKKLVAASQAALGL
Experimental: as §1, §2, §3, §4, §5, §6

[3] = RP-HPLC retention time as measure of hydrophilicity/hydrophobicity; assay type: physicochemical; details: chromatographic, C18; acetonitrile and water with 0.1% formic acid, 5–95 % acetonitrile over 15 min; higher retention time = more hydrophobic
Text: The bulk properties of the macrocycles depend on the functional groups on the side chain and backbone and the ring size. The platform for the tunability in the macrocyclic scaffold aided in the synthesis of molecules with a wide range of properties. The hydrophilicity/hydrophobicity of the macrocycles is an important property, primarily for biological applications. The tunable property of the synthesized macrocycles is attributed to the different retention times in the reverse-phase high-performance liquid chromatogram (RP-HPLC). Hydrophilic compounds elute first through the column, thus lowering the retention time, whereas a higher retention time corresponds to the comparatively hydrophobic compounds. From Figure 3a, it could be inferred that the macrocycles MC1–5 and MC7 are hydrophilic, whereas MC8 and MC6 are hydrophobic, as depicted by the higher retention times. The higher hydrophobicity is due to the aromatic rings, two benzyl groups in MC6 and a naphthyl group in MC8. Another property achieved by one of the macrocycles is the addition of fluorophoric group as the side chain. The resultant fluorescence could be exploited for various photophysical applications, including the development of fluorimetric sensors (Figure 3b).
A Shimadzu (Kyoto, Japan) LC-MS-8045 with a Sprite TARGA C18 column (40 × 2.1 mm, 5 µm) was used for the LC-MS analysis. The spectra were monitored at 254 nm and 210 nm with a positive mode for mass detection. Water and acetonitrile with 0.1% formic acid were used as eluting solvents A and B. […] HRMS was carried out in a Bruker, Maxis Impact and Waters (Billerica, MA, USA) ACQUITY H-CLASS + UPLC/XevoG2 XS QTOF instrument. A 500 MHz Bruker AV III was used to record the ^1H NMR spectrum. The data were analyzed by MestReNova (version 8.1.1). ^1H NMR shifts are reported in units of ppm relative to tetramethyl silane. […]
Figure 3 Properties of the macrocycles. […] Fluorescence spectrum of 10 μM MC8 in methanol upon excitation with a wavelength of 278 nm.

| Compound | Extent of binding with BSA, in words [1] | Binding Constant, BSA [1] [M⁻¹] | Extent of interaction with HSA, in words [2] | Binding Constant, HSA [2] [M⁻¹] | Hydrophilicity/hydrophobicity inferred from RP-HPLC retention time [3] |
| --- | --- | --- | --- | --- | --- |
| CCN(CC)C(=O)CN1CCOCc2cn(nn2)CCNCCn2cc(nn2)C1 [MC4] | moderate binding | 9100 | greater extent of interaction | 8400 | – |
| c1c2nnn1CCNCCn1cc(nn1)COCCCCCCCCCCCCOC2 [MC7] | highest binding | 27100 | highest interaction and quenching | 15800 | hydrophilic |
| c1c2nnn1CCNCCn1cc(nn1)CN(C1CCCCC1)CCOC2 [MC3] | moderate binding | 4200 | – | 3500 | – |
| c1ccc(CN2CCN(Cc3ccccc3)Cc3cn(nn3)CCNCCn3cc(nn3)C2)cc1 [MC6] | negligible binding | 800 | lowest | 930 | hydrophobic |
| CN1CCN(C)Cc2cn(nn2)CCNCCn2cc(nn2)C1 [MC5] | negligible binding | 1400 | – | 3200 | – |
| CCCN1CCOCc2cn(nn2)CCNCCn2cc(nn2)C1 [MC1] | moderate binding | 4600 | – | 4200 | – |
| CC(C)N1CCOCc2cn(nn2)CCNCCn2cc(nn2)C1 [MC2] | moderate binding | 4000 | – | 4400 | – |
| c1ccc2cc(CN3CCOCc4cn(nn4)CCNCCn4cc(nn4)COCC3)ccc2c1 [MC8] | – | – | – | – | hydrophobic |
